Test [1] relates to human mixed lymphocyte reaction. The experiment in a line: Human Mixed Lymphocyte Reaction Test (MLR). It is filed as cell-based. Conditions: 144 h. The source says: The human mixed lymphocyte reaction is an in vitro immune response. Inhibition of the human mixed lymphocyte reaction immune response is a standard assay used in the field of immunology, which is considered to be indicative of in vivo immunosuppressive activity. […] The human mixed lymphocyte is also used as a model system for immune reactions involving T-cell-mediated immune responses. Such T-cell-mediated immune responses have been linked to the disease pathology associated with autoimmune diseases, chronic inflammatory diseases, graft versus host disease and organ transplantation rejection.
Blood was obtained by venipuncture from two non-related human donors. Peripheral blood mononuclear cells (PBMC) were isolated from these samples by using the Leuco Prep procedure (Becton-Dickinson). […] Cells from donor A (2×10^5) were incubated with cells from donor B (2×10^5) with or without compound in 96 well round bottom microtiter plates at 37° C., 5% CO2 for 6 days. Eighteen hours prior to harvesting cells from the plates, all wells were pulsed with 1 uCi of tritiated-thymidine. Cells from the plates were washed on day 6 and tritiated-thymidine incorporation was determined using a scintillation counter.

Test [2] deals with contact sensitivity response to 2,4-dinitrofluorobenzene (DNFB). As to the kind of experiment: Assay of Contact Sensitivity Response to DNFB in Mice. Conditions: oral, 0.25% Methocel; ear swelling 24 hours after DNFB challenge. The test is classed as in vivo, Balb/c female mice. An excerpt:
Contact sensitivity to 2,4-dinitrofluorobenzene (DNFB) has been extensively studied and characterized in the mouse to determine the regulatory mechanisms involved in cell mediated immune responses (Claman et al., Immunol. Rev. 50:105, 1980; Young and Young, "Cutaneous Models of Inflammation for the Evaluation of Topical and Systemic Pharmacological Agents" in Pharmacological Methods in the Control of Inflammation (Chang and Lewis, Eds.), Alan R. Liss, Inc., New York, pp. 215-231, 1989). This is an antigen-specific T-cell mediated inflammatory response that represents delayed-type hypersensitivity reactions seen in both humans and other mammals. This contact sensitivity animal model is used routinely in many laboratories for pharmacological screening of antiinflammatory agents.
The contact sensitivity model used for this study is an extensively used model system for delayed-type hypersensitivity reactions involving cell-mediated immune responses (T-cell mediated responses), which have been linked to the disease pathology associated with organ transplantation rejection, graft versus host disease, multiple sclerosis, myasthenia gravis, systemic lupus erythematosus, rheumatoid arthritis, and other chronic inflammatory diseases and autoimmune diseases for which the T-cell is pivotal to mounting an immune or autoimmune response.
Balb/c female mice (approximately 20 g, Charles River) were sensitized on the shaved abdomen with 25 uL of 0.5% 2,4-dinitrofluorobenzene (DNFB) (Eastman Kodak Co.) in a vehicle of 4:1 acetone: olive oil on days 0 and 1. Mice were ear challenged with 20 uL of 0.2% DNFB in a vehicle of 4:1 acetone: olive oil on day 5. An identical segment of the ear was measured immediately before challenge and 24 hours later with an engineer's micrometer. Ear swelling was expressed as the difference in ear thickness before and after challenge in units of 10-4 inches±SEM. Percent suppression was calculated as: [formula] Compounds (prepared in 0.25% Methocel®) were administered orally. Control animals received only vehicle (0.25% Methocel®). Negative controls were not sensitized on days 0 and 1 but were ear challenged on day 5. Ten mice are typically used per group.
Contact sensitivity results for representative compounds of the present invention are shown in Table B. In this table, + designates greater than 30% suppression of control ear swelling.

The mark [3] stands for this setting: human MLR, tritiated-thymidine incorporation, 6 days, read-out: IC50.

The record followed here is US5523408A, “2-carbocyclic and 2-heterocyclic quinoline-4-carboxylic acids and salts thereof useful as immunosuppressive agents” (The Dupont Merck Pharmaceutical Company, priority 1994, dated 1996).

Where a name gives a salt, the structure may show the parent alone. Read-outs that look alike come from different tables or passages of the source.

By IC50 is commonly meant the concentration that inhibits the measured activity by half.

As for `Cc1c(N2CCc3c(-c4ccccc4)cccc32)nc2ccc(F)cc2c1C(=O)O` [Ex. 1, 6-fluoro-3-methyl-2-(4-phenyl-1-indolinyl)quinoline-4-carboxylic acid], the IC50 in test [1] (setting [3]) was below 50 nM. Also, in test [2], the “Contact Sensitivity Activity (suppression of control ear swelling)” value (shortened to “Contact Sensitivity Activity”) is reported as “+ (greater than 30% suppression of control ear swelling)”.
As for `Cc1c(N2CCc3c(-c4ccccc4)cccc32)nc2ccc(F)cc2c1C(=O)[O-].[Na+]` [Ex. 2, 6-fluoro-3-methyl-2-(4-phenyl-1-indolinyl)quinoline-4-carboxylic acid, sodium salt], the “Contact Sensitivity Activity” value in test [2] was “+ (greater than 30% suppression of control ear swelling)”.
As to `Cc1c(N2CCc3c(-c4ccccc4)cccc32)nc2ccccc2c1C(=O)O` [Ex. 4], in test [1] (setting [3]), the IC50 was 50 to 10000 nM. In addition, in test [2], the “Contact Sensitivity Activity” value was “+ (greater than 30% suppression of control ear swelling)”.
Consider `O=C(O)c1cc(N2CCc3c(-c4ccccc4)cccc32)nc2ccc(F)cc12` [Ex. 5, 6-fluoro-2-(4-phenyl-1-indolinyl)-quinoline-4-carboxylic acid, sodium salt], for which the IC50 in test [1] (Homo sapiens) is below 50 nM.
As to `O=C([O-])c1cc(N2CCc3c(-c4cccc(C(F)(F)F)c4)cccc32)nc2ccc(F)cc12.[Na+]` [Ex. 6, 6-fluoro-2-[4-(3-trifluoromethylphenyl)-1-indolinyl]-quinoline-4-carboxylicacid, sodium salt], the IC50 in test [1] (Homo sapiens) is below 50 nM. The “Contact Sensitivity Activity” value in test [2] was “+ (greater than 30% suppression of control ear swelling)”.
Regarding `O=C(O)c1cc(N2CCc3c(-c4ccccc4F)cccc32)nc2ccc(F)cc12` [Ex. 7], the IC50 in test [1] (setting [3]) was below 50 nM. In addition, in test [2], the “Contact Sensitivity Activity” value is listed as “+ (greater than 30% suppression of control ear swelling)”.
In the case of `Cc1ccccc1-c1cccc2c1CCN2c1cc(C(=O)O)c2cc(F)ccc2n1` [Ex. 8, 6-fluoro-2-[4-(2-methylphenyl)-1-indolinyl]-quinoline-4-carboxylic acid, sodium salt], the IC50 in test [1] (Homo sapiens) was below 50 nM.
Consider `COc1ccccc1-c1cccc2c1CCN2c1nc2ccc(F)cc2c(C(=O)O)c1C` [Ex. 9, 6-fluoro-[4-(2-methoxyphenyl)-1-indolinyl]-3-methylquinoline-4-carboxylic acid, sodium salt], for which, in test [1] (setting [3]), the IC50 was below 50 nM.
As to `Cc1c(N2CCc3c(-c4ccccc4F)cccc32)nc2ccc(F)cc2c1C(=O)[O-].[Na+]` [Ex. 10, 6-fluoro-2-[4-(2-fluorophenyl)-1-indolinyl]-3-methylquinoline-4-carboxylic acid, sodium salt], the IC50 in test [1] (Homo sapiens) is below 50 nM. In test [2], the “Contact Sensitivity Activity” value was “+ (greater than 30% suppression of control ear swelling)”.
In the case of `Cc1ccccc1-c1cccc2c1CCN2c1nc2ccc(F)cc2c(C(=O)O)c1C` [Ex. 11, 6-fluoro-3-methyl-2-[4-(2-methylphenyl)-1-indolinyl]-quinoline-4-carboxylicacid, sodium salt], the IC50 in test [1] (Homo sapiens) was below 50 nM.
In test [1] (Homo sapiens), `Cc1c(N2CCc3c(-c4cccc(C(F)(F)F)c4)cccc32)nc2ccc(F)cc2c1C(=O)[O-].[Na+]` [Ex. 12, 6-fluoro-3-methyl-2-[4-(3-trifluoromethylphenyl)-1-indolinyl]-quinoline-4-carboxylic acid, sodium salt] came in with an IC50 below 50 nM. Also, the “Contact Sensitivity Activity” value in test [2] is given as “+ (greater than 30% suppression of control ear swelling)”.
Take `COc1cccc(-c2cccc3c2CCN3c2nc3ccc(F)cc3c(C(=O)O)c2C)c1` [Ex. 13, 6-fluoro-[4-(3-methoxyphenyl)-1-indolinyl]-3-methylquinoline-4-carboxylic acid, sodium salt]: in test [1] (setting [3]), the IC50 is below 50 nM.
Consider `Cc1c(-n2ccc3c(-c4ccccc4)cccc32)nc2ccc(F)cc2c1C(=O)O` [Ex. 46], for which the IC50 in test [1] (setting [3]) is 50 to 10000 nM. Besides, the “Contact Sensitivity Activity” value in test [2] is listed as “+ (greater than 30% suppression of control ear swelling)”.
Consider `Cc1c(-n2ccc3c(-c4ccccc4)cccc32)nc2ccc(F)cc2c1C(=O)[O-].[Na+]` [Ex. 47, 6-fluoro-3-methyl-2-(4-phenyl-1-indolyl)-quinoline-4-carboxylic acid, sodium salt], for which the “Contact Sensitivity Activity” value in test [2] was “+ (greater than 30% suppression of control ear swelling)”.
`Cc1c(-n2cnc3c(-c4ccccc4)cc(F)cc32)nc2ccc(F)cc2c1C(=O)O` [Ex. 68, 6-fluoro-3-methyl-2-(6-fluoro-4-phenyl-1-benzimidazolyl)quinoline-4-carboxylic acid]: the IC50 in test [1] (setting [3]) is 50 to 10000 nM.
`Cc1c(-c2cn(C)c3c(-c4ccccc4)cccc23)nc2ccc(C(F)(F)F)cc2c1C(=O)O` [Ex. 73, 3-methyl-2-(7-phenyl-1-methyl-3-indolyl)-6-trifluoromethylquinoline-4-carboxylic acid, sodium salt] had an IC50 in test [1] (Homo sapiens) below 50 nM.
Turning to `Cc1c(-c2cn(C)c3c(-c4ccccc4)cccc23)nc2ccc(F)cc2c1C(=O)[O-].[Na+]` [Ex. 75, 6-fluoro-3-methyl-2-(7-phenyl-1-methyl-3-indolyl)-quinoline-4-carboxylic acid, sodium salt], in test [1] (Homo sapiens), the IC50 lay in the range of 50 to 10000 nM. Further, the “Contact Sensitivity Activity” value in test [2] is on record as “+ (greater than 30% suppression of control ear swelling)”.
With `Cc1c(-c2cccc3c(-c4ccccc4)cccc23)nc2ccc(F)cc2c1C(=O)O` [Ex. 128, 6-fluoro-3-methyl-2-(5-phenyl-1-naphthyl) quinoline-4-carboxylic acid, sodium salt], the IC50 in test [1] (setting [3]) was in the range of 50 to 10000 nM.
Regarding `CN(Cc1cnc2nc(N)nc(N)c2n1)c1ccc(C(=O)N[C@@H](CCC(=O)O)C(=O)O)cc1` [methotrexate, reference compound], the IC50 in test [1] (Homo sapiens) was below 50 nM. In addition, the “Contact Sensitivity Activity” value in test [2] was “+ (greater than 30% suppression of control ear swelling)”.
